For series [1], the system named is JB6 P+ cells. Kind of series: Anchorage-independent growth assay in soft agar (EGF-induced JB6 P+ colony formation). Type of series: cell-based, mouse. Particulars: for IC50 / minimal effective concentration: 10 ng/mL EGF; for minimal effective concentration: first concentration with expected statistical decrease, read-out: Soft Agar Assay Log IΔ2*PSD (converted). The method, then:
Ten ng/mL EGF was used to promote the anchorage-independent growth of JB6 cells. […] Plates were incubated at 37°C, 5% CO2 for 14 days. Colonies with greater than ten cells were counted manually under a microscope. […] Normalization allowed for comparison of data over a range of JB6 P+ cell cultures, passages, and experimental time for the shRNA studies, as well as control for variation in the EGF response, and importantly allowed for a direct comparison to all concentration-response experiments including the toxicity assays. […] All group sizes were determined via previous studies to provide statistically meaningful data. In the soft agar assays, key results were repeated with different JB6 P+ cells to confirm the results. Similarly, the shRNA studies were conducted with three independent concentration-response curves with different JB6 P+ cell stocks. […] For two sample comparisons a t-test was utilized, and when comparing multiple samples a One-, Two-, or Three-Factor ANOVA followed by Tukey-Kramer post hoc test was utilized depending on the data. For all tests, statistical difference was donated when p < 0.05. […] The I[…]*PSD is expressed in x-axis units (log [M]) as is an IC50 and it represents the first concentration where it is expected to observe a statistical decrease in the measured signal. […] Using the formula provided by GraphPad Prism or a straight line for the point-to-point graphs, the X-axis value for point Y was determined. The error is ascribed to this measurement via adding and subtracting the pooled standard deviation (PSD) to/from point Y generating point Y ± PSD. The two new points were then transformed to the X-axis units as was done for point Y creating an asymmetric error in sigmoidal plots. When the error was asymmetric, the larger error value was chosen to err on the conservative side. See S1 Fig for a pictoral explination of the method. The data is presented as I[…]*PSD ± error.

Series [2] relates to JB6 P+ cells. Kind of series: SRB cytotoxicity assay. Type of series: cell-based, mouse. Particulars: for SRB Assay Log IΔ2*PSD: 72 hr, NT = no toxicity at any concentration tested. The method, then: 96-well plates were seeded with 3x10^3 JB6 P+ cells per well and allowed to attach overnight. […] Cell viability was determined using Sulforhodamine B (SRB) assay from Sigma-Aldrich according to the manufacturer’s protocol. Cellular protein content was measured using a Bio-Tek μQuant plate reader with KCJunior software.
Concentration-response curves were normalized so that the EGF positive control on each 96-well plate was set to 100% and the control wells on each plate were set to 0%. Toxicity assays (SRB and MTS) were normalized so that the control on each plate represented 100% viability. Normalization allowed for comparison of data over a range of JB6 P+ cell cultures, passages, and experimental time for the shRNA studies, as well as control for variation in the EGF response, and importantly allowed for a direct comparison to all concentration-response experiments including the toxicity assays. […] All group sizes were determined via previous studies to provide statistically meaningful data. In the soft agar assays, key results were repeated with different JB6 P+ cells to confirm the results. Similarly, the shRNA studies were conducted with three independent concentration-response curves with different JB6 P+ cell stocks. […] For two sample comparisons a t-test was utilized, and when comparing multiple samples a One-, Two-, or Three-Factor ANOVA followed by Tukey-Kramer post hoc test was utilized depending on the data. For all tests, statistical difference was donated when p < 0.05.
The IΔ2*PSD is expressed in x-axis units (log [M]) as is an IC50 and it represents the first concentration where it is expected to observe a statistical decrease in the measured signal.
Using the formula provided by GraphPad Prism or a straight line for the point-to-point graphs, the X-axis value for point Y was determined. The error is ascribed to this measurement via adding and subtracting the pooled standard deviation (PSD) to/from point Y generating point Y ± PSD. The two new points were then transformed to the X-axis units as was done for point Y creating an asymmetric error in sigmoidal plots. When the error was asymmetric, the larger error value was chosen to err on the conservative side. See S1 Fig for a pictoral explination of the method. The data is presented as IΔ2*PSD ± error.

The target of series [3] is β2-AR. Particulars: given as negative log value; cited from earlier work.
Series [4] has as its system β2-AR. The arrangement: method as in as printed in each cell (43-46, 48-54, 56-58). Particulars: as described in the references; ref (43-46, 48-54, 56-58); cited from earlier work.
The test system of series [5] is JB6 P+ cells. Description: Soft agar assay with competitive adrenergic receptor antagonists. Type of series: cell-based. To be noted: Mus musculus, alone, CGP 12177 experiment (S2 Fig). The protocol: Ten ng/mL EGF was used to promote the anchorage-independent growth of JB6 cells. […] Plates were incubated at 37°C, 5% CO2 for 14 days. Colonies with greater than ten cells were counted manually under a microscope. Antagonists identified in our assays as ineffective at blocking EGF-mediated transformation of JB6 P+ cells yet displaying no or little toxicity were used as competitive antagonists towards carvedilol-mediated prevention of EGF-induced transformation of JB6 P+ cells.

[6] abbreviates: Mus musculus, 336 h, 14 days, negative log value, read-out: Soft Agar Assay Log IC50 (converted).

The IC50 is the concentration needed to halve the response being measured.

Regarding `CC(C)(Cc1c[nH]c2ccccc12)NCC(O)COc1ccccc1C#N` (stereo not drawn) [Bucindolol], in series [1] (setting [6]), the half-maximal inhibitory concentration (IC50) was 9330 nM. The minimal effective concentration in series [1] (Mus musculus, 336 h, 14 days) was 1.91 µM. Also, the “SRB Assay Log IΔ2*PSD” value in series [2] is -4.84 ± 0.10 log [M]. Also, the Toxicity label result in series [2] (Toxic = no 10-fold difference between IΔ2*PSD from soft agar and SRB assays) is listed as “Toxic”. Also, in series [3], the “Log Kd at β2-AR” value is -8.22 ± 0.1 [52]. Also, the “Pharmacological property at β2-AR” value in series [4] was “Partial agonist for cAMP and full agonist for ERK [44, 52]”.

Turning to `OC(CNCC(O)C1CCc2cc(F)ccc2O1)C1CCc2cc(F)ccc2O1` (stereo not drawn) [Nebivolol], the half-maximal inhibitory concentration (IC50) in series [1] (soft agar, read-out: IC50, inhibition of EGF-mediated transformation) was no more than 1000 nM; in series [1] (Mus musculus, soft agar, read-out: IC50, inhibition of EGF-mediated transformation), 1090 nM; in series [1] (setting [6]), 1100 nM; in series [5], 347 nM. Besides, the minimal effective concentration in series [1] (Mus musculus, 336 h, 14 days) is 0.479 µM. Further, the Emax in series [1] (Mus musculus, efficacy of inhibition of colony formation, reported if non-toxic) stood at 96.5 ± 7.24%. For the same compound, the “SRB Assay Log IΔ2*PSD” value in series [2] was -4.65 ± 0.19 log [M]. The “Log Kd at β2-AR” value in series [3] is -7.91 ± 0.07 [47]. Besides, the “Pharmacological property at β2-AR” value in series [4] is “Biased agonist/ activates ERK [46]”.
